Source: ChEMBL document CHEMBL1201862, “PubChem BioAssay data set” (2004)
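Assay format: 96-well plates, 48-hour exposure. Abbreviation: GI50, concentration required for 50% inhibition of growth.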 Activity calls are given as the source filed them. Rule as the data show it: active = GI50 up to about 1.1 µM and inactive = higher.

What was measured:
Assay in all cases: NCI anticancer screen, dose series, 48 h
KM12 = tested on: KM12
NCI/ADR-RES = tested on: NCI/ADR-RES
NCI-H522 = tested on: NCI-H522
A549 = tested on: A549
EKVX = tested on: EKVX
PC-3 = tested on: PC-3
Malme-3M = tested on: Malme-3M
SR = tested on: SR
LOX IMVI = tested on: LOX IMVI
COLO 205 = tested on: COLO 205
786-0 = tested on: 786-0
SNB-19 = tested on: SNB-19
OVCAR-5 = tested on: OVCAR-5
MDA-N = tested on: MDA-N
MDA-MB-231 = tested on: MDA-MB-231
MOLT-4 = tested on: MOLT-4
HCC 2998 = tested on: HCC 2998
SK-MEL-5 = tested on: SK-MEL-5
SW-620 = tested on: SW-620
IGROV-1 = tested on: IGROV-1
OVCAR-8 = tested on: OVCAR-8
SNB-75 = tested on: SNB-75
NCI-H226 = tested on: NCI-H226
UO-31 = tested on: UO-31
SN12C = tested on: SN12C
HCT-15 = tested on: HCT-15
TK-10 = tested on: TK-10
NCI-H460 = tested on: NCI-H460
SF-539 = tested on: SF-539
SK-MEL-28 = tested on: SK-MEL-28
SF-268 = tested on: SF-268
CAKI-1 = tested on: CAKI-1
SK-OV-3 = tested on: SK-OV-3
OVCAR-4 = tested on: OVCAR-4
HT-29 = tested on: HT-29
RPMI-8226 = tested on: RPMI-8226
M14 = tested on: M14
UACC-257 = tested on: UACC-257
DU-145 = tested on: DU-145
T47D = tested on: T47D
HCT-116 = tested on: HCT-116
MCF7 = tested on: MCF7
RXF 393 = tested on: RXF 393
SK-MEL-2 = tested on: SK-MEL-2
ACHN = tested on: ACHN
MDA-MB-435 = tested on: MDA-MB-435
NCI-H23 = tested on: NCI-H23
OVCAR-3 = tested on: OVCAR-3
BT-549 = tested on: BT-549
SF-295 = tested on: SF-295
U-251 = tested on: U-251
HOP-62 = tested on: HOP-62
K562 = tested on: K562
Hs-578T = tested on: Hs-578T
CCRF-CEM = tested on: CCRF-CEM
HL-60 = tested on: HL-60
UACC-62 = tested on: UACC-62

For `Cc1ccc(/C=C2/N/C(=N\N=C/c3ccccc3)NC2=O)cc1`, the GI50 (KM12) was > 100 µM (inactive), the GI50 (NCI/ADR-RES) was 33.3 µM (inactive) and the GI50 (NCI-H522) was 31.8 µM (inactive). The GI50 (A549) was 44.2 µM (inactive), the GI50 (EKVX) was 43.1 µM (inactive) and the GI50 (PC-3) was 48.5 µM (inactive). The GI50 (Malme-3M) was 42.5 µM (inactive), the GI50 (SR) was 30.6 µM (inactive) and the GI50 (LOX IMVI) was 39.1 µM (inactive). The GI50 (COLO 205) was 56.5 µM (inactive), the GI50 (786-0) was 20.3 µM (inactive) and the GI50 (SNB-19) was 25.8 µM (inactive). The GI50 (OVCAR-5) was > 100 µM (inactive), the GI50 (MDA-N) was 28.2 µM (inactive) and the GI50 (MDA-MB-231) was 42.1 µM (inactive). For the same compound, the GI50 (MOLT-4) was 21.9 µM (inactive), the GI50 (HCC 2998) was 28.9 µM (inactive) and the GI50 (SK-MEL-5) was 35 µM (inactive). The GI50 (SW-620) was 41.6 µM (inactive), the GI50 (IGROV-1) was 51.6 µM (inactive) and the GI50 (OVCAR-8) was 42.5 µM (inactive). The GI50 (SNB-75) was 31.3 µM (inactive), the GI50 (NCI-H226) was > 100 µM (inactive) and the GI50 (UO-31) was 18.4 µM (inactive). For the same compound, the GI50 (SN12C) was 45.7 µM (inactive), the GI50 (HCT-15) was 30.9 µM and the GI50 (TK-10) was 32.2 µM (inactive). For the same compound, the GI50 (NCI-H460) was 31.6 µM (inactive), the GI50 (SF-539) was 44.4 µM (inactive) and the GI50 (SK-MEL-28) was 36.4 µM (inactive). The GI50 (SF-268) was 77.1 µM (inactive), the GI50 (CAKI-1) was 38.5 µM (inactive) and the GI50 (SK-OV-3) was 40.3 µM (inactive). For the same compound, the GI50 (OVCAR-4) was 14.8 µM (inactive), the GI50 (HT-29) was 46.3 µM (inactive) and the GI50 (RPMI-8226) was 16.2 µM (inactive). The GI50 (M14) was 31.7 µM (inactive), the GI50 (UACC-257) was > 100 µM (inactive) and the GI50 (DU-145) was 55.1 µM (inactive). The GI50 (T47D) was 28.7 µM (inactive), the GI50 (HCT-116) was 28.6 µM (inactive) and the GI50 (MCF7) was 28.8 µM (inactive). For the same compound, the GI50 (RXF 393) was 26.5 µM (inactive), the GI50 (SK-MEL-2) was 39.4 µM (inactive) and the GI50 (ACHN) was 17.3 µM (inactive). For the same compound, the GI50 (MDA-MB-435) was 24.2 µM (inactive), the GI50 (NCI-H23) was 54.2 µM (inactive) and the GI50 (OVCAR-3) was 44.8 µM (inactive). The GI50 (BT-549) was 29.9 µM (inactive), the GI50 (SF-295) was 28.9 µM (inactive) and the GI50 (U-251) was 26 µM (inactive). The GI50 (HOP-62) was 54.6 µM (inactive), the GI50 (K562) was 34.3 µM (inactive) and the GI50 (Hs-578T) was 25.8 µM (inactive).
In the case of `COc1ccc(-c2c(C#N)c(S)n(NS(=O)(=O)c3ccccc3)c(=O)c2C#N)cc1`, the GI50 (KM12) is reported as 70.6 µM (inactive), the GI50 (NCI/ADR-RES) is reported as 70.5 µM (inactive) and the GI50 (NCI-H522) is reported as 26.4 µM (inactive). For the same compound, the GI50 (A549) was 56.2 µM (inactive), the GI50 (PC-3) was 37.7 µM (inactive) and the GI50 (CCRF-CEM) was 24.3 µM (inactive). The GI50 (Malme-3M) was > 96.6 µM (inactive), the GI50 (SR) was 23.1 µM (inactive) and the GI50 (LOX IMVI) was 35.9 µM (inactive). For the same compound, the GI50 (COLO 205) was 58.1 µM (inactive), the GI50 (786-0) was 35.2 µM (inactive) and the GI50 (SNB-19) was > 100 µM (inactive). The GI50 (OVCAR-5) was > 100 µM (inactive), the GI50 (MDA-N) was 45.6 µM (inactive) and the GI50 (MDA-MB-231) was 88.9 µM (inactive). The GI50 (MOLT-4) was 53.2 µM (inactive), the GI50 (HCC 2998) was > 100 µM (inactive) and the GI50 (SK-MEL-5) was 36.7 µM (inactive). For the same compound, the GI50 (SW-620) was 40.9 µM (inactive), the GI50 (IGROV-1) was 31.9 µM (inactive) and the GI50 (OVCAR-8) was 48.8 µM (inactive). For the same compound, the GI50 (SNB-75) was > 100 µM (inactive), the GI50 (NCI-H226) was > 100 µM (inactive) and the GI50 (UO-31) was 65 µM (inactive). The GI50 (SN12C) was 46.5 µM (inactive), the GI50 (HCT-15) was 40.6 µM and the GI50 (TK-10) was 29.3 µM (inactive). For the same compound, the GI50 (NCI-H460) was 48.5 µM (inactive), the GI50 (SF-539) was 24.5 µM (inactive) and the GI50 (SK-MEL-28) was > 100 µM (inactive). For the same compound, the GI50 (SF-268) was 62.7 µM (inactive), the GI50 (CAKI-1) was > 72.8 µM (inactive) and the GI50 (SK-OV-3) was > 100 µM (inactive). The GI50 (OVCAR-4) was 46.6 µM (inactive), the GI50 (HT-29) was 45.6 µM (inactive) and the GI50 (RPMI-8226) was 42.8 µM (inactive). The GI50 (M14) was 58.6 µM (inactive), the GI50 (HL-60) was 47.1 µM (inactive) and the GI50 (UACC-257) was 80.9 µM (inactive). The GI50 (DU-145) was > 100 µM (inactive), the GI50 (T47D) was 36.1 µM (inactive) and the GI50 (HCT-116) was 37.9 µM (inactive). For the same compound, the GI50 (MCF7) was 59.6 µM (inactive), the GI50 (RXF 393) was 37.8 µM (inactive) and the GI50 (SK-MEL-2) was 47 µM (inactive). The GI50 (ACHN) was 55.7 µM (inactive), the GI50 (MDA-MB-435) was 34.3 µM (inactive) and the GI50 (NCI-H23) was 75.2 µM (inactive). The GI50 (OVCAR-3) was 87.9 µM (inactive), the GI50 (BT-549) was 14.3 µM (inactive) and the GI50 (SF-295) was 77.3 µM (inactive). For the same compound, the GI50 (U-251) was 40.4 µM (inactive), the GI50 (HOP-62) was > 100 µM (inactive) and the GI50 (K562) was 42.5 µM (inactive). For the same compound, the GI50 (UACC-62) was 34.5 µM (inactive) and the GI50 (Hs-578T) was 49 µM (inactive).
